{"source": "paper PMC4263960", "about": "(Pediatric blood & cancer, 2013)", "origin": "cited, not measured here", "key": {"[1]": {"system": "pediatric preclinical xenograft models", "conditions": "cited from earlier work"}, "[2]": {"system": "neuroblastoma in children", "conditions": "45 children with neuroblastoma; cited from earlier work"}, "[3]": {"system": "Ewing sarcoma patients", "conditions": "cited from earlier work"}, "[4]": {"system": "recurrent solid tumors in children", "conditions": "cited from earlier work"}, "[5]": {"system": "pediatric solid tumors", "conditions": "cited from earlier work"}}, "note": "Read-outs that look alike come from different tables or passages of the source."}
{"smiles": "COc1ccc(S(=O)(=O)Nc2cccnc2Nc2ccc(O)cc2)cc1", "note": "[ABT-751]", "values": [{"measurement": "preclinical models with regression", "setting": "[1]; all models", "result": "4 of 25"}, {"measurement": "preclinical models with regression", "setting": "[1]; neuroblastoma models refractory to vincristine and paclitaxel", "result": "2 of 4"}, {"measurement": "objective responses", "setting": "[2]", "result": "absence of objective responses"}]}
{"smiles": "CC[C@]1(O)C[C@H]2CN(CCc3c([nH]c4ccccc34)[C@@](C(=O)OC)(c3cc4c(cc3OC)N(C=O)[C@H]3[C@@](O)(C(=O)OC)[C@H](OC(C)=O)[C@]5(CC)C=CCN6CC[C@]43[C@@H]65)C2)C1", "note": "[vincristine]", "values": [{"measurement": "patients with a partial response", "setting": "[3]", "result": "one of seven"}]}
{"smiles": "CCC1=C[C@@H]2CN(C1)Cc1c([nH]c3ccccc13)[C@@](C(=O)OC)(c1cc3c(cc1OC)N(C)[C@H]1[C@@](O)(C(=O)OC)[C@H](OC(C)=O)[C@]4(CC)C=CCN5CC[C@]31[C@@H]54)C2", "note": "[vinorelbine]", "values": [{"measurement": "patients with objective responses", "setting": "[4]; astrocytoma", "result": "1 of 4"}, {"measurement": "patients with objective responses", "setting": "[4]; eight children with neuroblastoma", "result": "no responses"}, {"measurement": "patients with objective responses", "setting": "[4]; medulloblastoma", "result": "1 of 2"}, {"measurement": "patients with objective responses", "setting": "[4]; nine patients with non-rhabdomyosarcoma soft tissue sarcoma", "result": "no responses"}, {"measurement": "patients with objective responses", "setting": "[4]; rhabdomyosarcoma", "result": "4 of 11"}, {"measurement": "patients with objective responses", "setting": "[5]; Ewing sarcomas", "result": "one of seven"}, {"measurement": "patients with objective responses", "setting": "[5]; osteosarcomas", "result": "one of five"}, {"measurement": "patients with objective responses", "setting": "[5]; rhabdomyosarcoma", "result": "6 of 12"}]}
